Results on 48 compounds are retold here after patent US7488832B2, “Azolylacylguanidines as β-secretase inhibitors” (Wyeth, priority 2005, dated 2009).

SMILES strings stand for the structures.

Sequence of human BACE1 (P56817 46-501): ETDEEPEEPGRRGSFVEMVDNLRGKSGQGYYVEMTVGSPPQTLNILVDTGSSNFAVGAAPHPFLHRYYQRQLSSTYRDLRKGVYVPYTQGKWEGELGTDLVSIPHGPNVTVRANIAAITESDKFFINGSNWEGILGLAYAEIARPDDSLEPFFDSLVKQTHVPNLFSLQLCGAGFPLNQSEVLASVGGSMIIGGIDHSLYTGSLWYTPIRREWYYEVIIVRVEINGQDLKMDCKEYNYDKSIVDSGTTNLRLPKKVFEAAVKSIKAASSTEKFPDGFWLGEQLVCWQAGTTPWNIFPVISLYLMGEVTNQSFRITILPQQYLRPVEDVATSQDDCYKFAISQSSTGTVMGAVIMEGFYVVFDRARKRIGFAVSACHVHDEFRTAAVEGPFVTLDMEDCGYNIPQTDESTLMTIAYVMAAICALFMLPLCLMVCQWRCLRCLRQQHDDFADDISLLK

The assay has as its target human BACE1 (Homo sapiens, UniProt P56817). The assay can be described thus: Fluorescent kinetic assay, human BACE1 (FRET peptide substrate WABC-6).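 Note: fluorescence monitored at excitation 320 nm and emission 420 nm over 30 min, with the substrate cleavage rate taken as the linear slope of the signal.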 The class given is biochemical. The following applies: fluorescent kinetic assay, 25 μM substrate WABC-6, pH 4.5, room temperature; read-out: IC50 (μM) BACE 1.
Regarding `NC(=NC(=O)Cn1c(-c2ccccc2)ccc1C12CC3CC(CC(C3)C1)C2)NCC(F)(F)C(F)(F)F` [Example 416], the IC50 lay in the range of 0.11 to 1 µM. Next, `N=C(NCC(O)CO)NC(=O)Cn1c(-c2ccccc2)ccc1C12CC3CC(CC(C3)C1)C2` (stereo not drawn) [Example 406]: 0.11 to 1 µM. Next, `CC(=O)c1ccc(Oc2ccc(-c3ccc(-c4ccccc4)n3CC(=O)N=C(N)NCc3ccc(F)c(F)c3F)cc2)cc1` [Example 338]: 1.1 to 5 µM; `NC(=NC(=O)Cn1c(-c2ccccc2)ccc1-c1ccc(Oc2ccccc2)cc1)NCc1ccc(F)c(F)c1F` [Example 337]: 0.11 to 1 µM; `NC(=NC(=O)Cn1c(-c2ccccc2)ccc1-c1ccc(C2CCCCC2)cc1)NCCCO` [Example 327]: 0.11 to 1 µM. The value for `CC(C)c1ccc(-c2ccc(-c3ccccc3)n2CC(=O)N=C(N)NCCCO)cc1` [Example 319] was 0.11 to 1 µM; that for `N#CCCCNC(=N)NC(=O)Cn1c(-c2ccccc2)ccc1C1CCCCC1` [Example 474, N-(3-Cyano-propyl)-N′-[2-(2-cyclohexyl-5-phenyl-pyrrol-1-yl)-acetyl]-guanidine] was 1.1 to 5 µM; that for `COc1cccc(-c2ccc(-c3ccc4ccccc4c3)n2CC(=O)N=C(N)N)c1` [Example 147] was 1.1 to 5 µM.

On to `CCCCCOc1ccc(-c2ccc(-c3ccccc3Cl)n2CC(=O)/N=C(/N)NCCCO)cc1` [Example 317], for which the IC50 is 0.11 to 1 µM.

As to `N#CCCNC(=O)c1ccc(-c2ccc(-c3ccccc3)n2CC(=O)N=C(N)NCCCO)cc1` [Example 465], the IC50 lay in the range of 0.11 to 1 µM. Regarding `CCCc1ccc(-c2ccc(-c3ccccc3)n2CC(=O)N=C(N)NCc2ccc(F)c(F)c2F)cc1` [Example 332], the IC50 lay within 0.11 to 1 µM. The value for `N#CCCN/C(N)=N\C(=O)Cn1c(-c2ccccc2)ccc1C12CC3CC(CC(C3)C1)C2` [Example 397] was 0.11 to 1 µM; that for `NC(=NC(=O)Cn1c(-c2ccccc2)ccc1C12CC3CC(CC(C3)C1)C2)NCc1ccco1` [Example 401] was 1.1 to 5 µM; that for `N/C(=N/C(=O)Cn1c(-c2ccccc2)ccc1C12CC3CC(CC(C3)C1)C2)NCCO` [Example 396, 2-[2-(1-adamantyl)-5-phenyl-1H-pyrrol-1-yl]-N-{(1E)-amino[(2-hydroxyethyl)-amino]methylene}acetamide] was 0.11 to 1 µM. Next, `N=C(NCCCn1ccnc1)NC(=O)Cn1c(-c2ccccc2)ccc1C12CC3CC(CC(C3)C1)C2` [Example 413]: 1.1 to 5 µM; `CCCCOc1ccc(-c2ccc(-c3ccccc3)n2CC(=O)N=C(N)NCCCO)cc1` [Example 324]: 0.11 to 1 µM; `C=CCCCCOc1ccc(-c2ccc(-c3ccccc3Cl)n2CC(=O)N=C(N)NCCCO)cc1` [Example 315]: 0.11 to 1 µM. The value for `COc1ccc(OC)c(-c2ccc(-c3ccc(Oc4ccc(C(C)=O)cc4)cc3)n2CC(=O)N=C(N)N)c1` [Example 135] was 0.11 to 1 µM; that for `Cc1cccc(C(=O)Nc2ccc(-c3ccc(-c4ccccc4)n3CC(=O)N=C(N)N)cc2)c1` [Example 236] was 1.1 to 5 µM; that for `CCCN/C(N)=N\C(=O)Cn1c(-c2ccccc2)ccc1C12CC3CC(CC(C3)C1)C2` [Example 391] was 0.11 to 1 µM.

For the compound `NC(=NC(=O)Cn1c(-c2ccccc2)ccc1-c1ccc(C(=O)NCC(F)(F)C(F)(F)F)cc1)NCCCO` [Example 472], the concentration for half-maximal inhibition (IC50) was in the range of 1.1 to 5 µM. The value for `NC(N)=NC(=O)Cn1c(-c2ccccc2)ccc1-c1ccc(NS(=O)(=O)c2ccc(Cl)s2)cc1` [Example 258] was 1.1 to 5 µM.

For `NC(N)=NC(=O)Cn1c(-c2ccccc2)ccc1-c1ccc(C(=O)N2CCSC2)cc1` [Example 169], the IC50 was in the range of 1.1 to 5 µM. The value for `COCCCNC(N)=NC(=O)Cn1c(-c2ccccc2)ccc1C12CC3CC(CC(C3)C1)C2` [Example 414] was 0.11 to 1 µM. As to `N#CCc1cccc(-c2ccc(-c3ccccc3)n2CC(=O)NC(=N)N)c1` [Example 453], the IC50 lay in the range of 1.1 to 5 µM. Next, `CCCCOc1ccc(-c2ccc(-c3ccccc3)n2CC(=O)N=C(N)NCc2ccc(F)c(F)c2F)cc1` [Example 334]: 0.11 to 1 µM; `COc1ccc(OC)c(-c2ccc(-c3ccc(Oc4ccccc4)cc3)n2CC(=O)N=C(N)N)c1` [Example 133]: 1.1 to 5 µM; `CCOC(=O)CCCNC(N)=NC(=O)Cn1c(-c2ccccc2)ccc1C12CC3CC(CC(C3)C1)C2` [Example 409]: 1.1 to 5 µM. Next, `CC1CCN(C(=O)c2ccc(-c3ccc(-c4ccccc4)n3CC(=O)N=C(N)N)cc2)CC1` [Example 170]: 1.1 to 5 µM. Next, `CCCCc1ccc(-c2ccc(-c3ccccc3)n2CC(=O)N=C(N)NCCCO)cc1` [Example 321]: 0.11 to 1 µM; `Cc1ccc(C)c(-c2ccc(-c3ccccc3)n2CC(=O)NC(=N)N)c1` [Example 450]: 0.11 to 1 µM; `N/C(=N\C(=O)Cn1c(-c2ccccc2)ccc1C12CC3CC(CC(C3)C1)C2)NCCCCO` [Example 400, 2-[2-(1-Adamantyl)-5-phenyl-1H-pyrrol-1-yl]-N-{(1E)-amino[(4-hydroxybutyl)amino]-methylene}acetamide]: 0.11 to 1 µM.

On to `C=CCN(C)C(=O)c1ccc(-c2ccc(-c3ccccc3)n2CC(=O)N=C(N)NCCCO)cc1` [Example 470], for which the IC50 was 0.11 to 1 µM. Next, `COCCNC(=O)c1ccc(-c2ccc(-c3ccccc3)n2CC(=O)N=C(N)NCCCO)cc1` [Example 468]: 0.11 to 1 µM; `NC(=NC(=O)Cn1c(-c2ccccc2)ccc1-c1ccc(C2CCCCC2)cc1)NCc1ccc(F)c(F)c1F` [Example 336]: 0.11 to 1 µM; `N#CCCCCOc1ccc(-c2ccc(-c3ccccc3Cl)n2CC(=O)N=C(N)NCCCO)cc1` [Example 314]: 0.01 to 0.1 µM. `COCCNC(N)=NC(=O)Cn1c(-c2ccccc2)ccc1C12CC3CC(CC(C3)C1)C2` [Example 415]: the IC50 fell in the range of 0.11 to 1 µM. For the compound `CCCNC(=O)c1ccc(-c2ccc(-c3ccccc3)n2CC(=O)N=C(N)NCCCO)cc1` [Example 467], the IC50 was in the range of 0.11 to 1 µM.

`CCCCc1ccc(-c2ccc(-c3ccccc3)n2CC(=O)NC(=N)N)cc1` [Example 449]: the IC50 is 0.11 to 1 µM. The value for `CCC(=O)c1ccc(-c2ccc(-c3ccccc3)n2CC(=O)NC(=N)N)cc1` [Example 447] was 1.1 to 5 µM; that for `CCCCCc1ccc(-c2ccc(-c3ccccc3)n2CC(=O)N=C(N)NCCCO)cc1` [Example 323] was 0.11 to 1 µM. Regarding `Cc1ccc(-c2ccc(-c3ccc(Cl)s3)n2CC(=O)N=C(N)N)cc1` [Example 110], the IC50 was 1.1 to 5 µM. The value for `CCCCc1ccc(-c2ccc(-c3ccccc3)n2CC(=O)N=C(N)NCc2ccc(F)c(F)c2F)cc1` [Example 333] was 0.11 to 1 µM. For `C=CCNC(=O)c1ccc(-c2ccc(-c3ccccc3)n2CC(=O)N=C(N)NCCc2cccs2)cc1` [Example 425], the IC50 fell in the range of 0.11 to 1 µM.

With `CCCc1ccc(-c2ccc(-c3ccccc3)n2CC(=O)N=C(N)NCCCO)cc1` [Example 320], the IC50 lay in the range of 0.11 to 1 µM. Take `NC(=NC(=O)Cn1c(-c2ccccc2)ccc1-c1ccc(C(=O)NC2CC2)cc1)NCCCO` [Example 462]: the IC50 was in the range of 0.11 to 1 µM. Next, `NC(=NC(=O)Cn1c(-c2ccc(Oc3ccccc3)cc2)ccc1-c1ccccc1Cl)NCCCO` [Example 310]: 0.11 to 1 µM; `N#CCc1ccc(-c2ccc(-c3ccccc3)n2CC(=O)NC(=N)N)cc1` [Example 451]: 1.1 to 5 µM.
